Strand notation (5' to 3'): a small letter for the sugar, then the base; units joined by * are phosphorothioate-linked, units joined directly phosphodiester-linked; [ ] holds rarer units or linkages, { } end groups; capitals alone tell only the bases. k = constrained ethyl (cEt); [5mC] = 5-methylcytosine; d = 2'-deoxy (DNA)
Test system: Yap1 mRNA
Experiment: Dose-dependent inhibition of human Yap1 in A-431 cells (Example 8, 10,000 cells per well, RTS4814)
Format: cell-based
Conditions: free uptake, approximately 48 hours, RTS4814; for Yap1 mRNA, % UTC: A-431 cells, 10,000 cells per well; for IC50: A-431 cells, linear regression on log/linear plot
Summary of the method: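 Yap1 mRNA, normalized to RIBOGREEN total RNA and expressed as % untreated control, was read with RTS4814 about 48 h after free-uptake oligonucleotide treatment of A-431 cells at 10,000 cells/well. IC50 derived by linear regression of log/linear data.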

Substance	Yap1 mRNA, % UTC (31.3 nM) [% UTC]	Yap1 mRNA, % UTC (125.0 nM) [% UTC]	Yap1 mRNA, % UTC (500.0 nM) [% UTC]	Yap1 mRNA, % UTC (2000.00 nM) [% UTC]	IC50 [µM]
1076426 (kA*k[5mC]*kG*dG*dG*dA*dA*dA*dA*dT*dT*d[5mC]*dT*kG*kG*kA; antisense) [compound 1076426]	68	46	24	18	0.1
1076448 (k[5mC]*kT*kT*dA*dT*dA*dA*dT*dG*d[5mC]*dA*dA*dT*k[5mC]*k[5mC]*kT; antisense) [compound 1076448]	61	19	4	3	< 0.02
1076490 (k[5mC]*k[5mC]*kA*dA*dA*dA*dT*dA*dG*dG*dT*dG*dA*kG*kT*k[5mC]; antisense) [compound 1076490]	36	9	4	3	< 0.02
1076416 (kA*k[5mC]*k[5mC]*dG*dA*dA*dA*dT*dG*dA*dT*dA*d[5mC]*kT*kG*kA; antisense) [compound 1076416]	67	33	13	7	0.1
1076003 (kA*kA*kT*dT*dT*dA*dA*dT*dG*dG*d[5mC]*dT*dT*kG*k[5mC]*kA; antisense) [compound 1076003]	60	28	17	11	0.04
1074251 (antisense kT*k[5mC]*kT*dG*dA*dT*d[5mC]*dG*dA*dT*dG*dT*dG*kA*kT*kT) [compound 1074251]	73	33	16	10	0.1
1074723 (antisense kG*kG*kT*dA*dA*dA*dG*dG*dA*dA*dG*dA*dT*k[5mC]*kT*k[5mC]) [compound 1074723]	56	24	11	8	< 0.02
1076388 (antisense kG*kA*kA*dA*dT*dA*dT*dT*d[5mC]*dG*dA*dG*dA*kA*kG*kA) [compound 1076388]	87	40	13	6	0.1
1074564 (DNA k[5mC]*kT*kG*dA*dA*dT*dT*d[5mC]*d[5mC]*dA*dA*dT*d[5mC]*kG*kA*kG) [compound 1074564]	40	14	7	4	< 0.02
1076004 (kT*kA*kA*dT*dT*dT*dA*dA*dT*dG*dG*d[5mC]*dT*kT*kG*k[5mC]; antisense) [compound 1076004]	27	7	3	2	< 0.02
1075048 (antisense kG*kT*kA*dA*dA*dA*dT*dT*dA*dG*dA*d[5mC]*dT*k[5mC]*k[5mC]*k[5mC]) [compound 1075048]	76	42	13	5	0.1
1074315 (antisense kG*kA*kT*dT*dG*dA*dT*dA*dT*dT*d[5mC]*d[5mC]*dG*k[5mC]*kA*kT) [compound 1074315]	57	26	9	5	0.03
1076516 (k[5mC]*kA*kT*dA*dA*dA*d[5mC]*dA*dT*dG*dA*dG*dT*kG*kG*kT; antisense) [compound 1076516]	64	39	18	13	0.1
1075143 (k[5mC]*k[5mC]*kT*dT*dA*dT*dT*dA*dG*dT*d[5mC]*dA*dG*kT*kT*k[5mC]; antisense) [compound 1075143]	59	21	5	3	< 0.02
1075078 (antisense k[5mC]*kA*kA*d[5mC]*dT*dA*dT*dA*d[5mC]*dG*dG*dT*d[5mC]*k[5mC]*kA*kT) [compound 1075078]	65	32	12	4	0.1
1076299 (k[5mC]*kG*kT*dT*dA*dT*dA*dA*dA*dG*dA*d[5mC]*d[5mC]*k[5mC]*kA*kA; antisense) [compound 1076299]	68	38	13	5	0.1
1074313 (antisense kT*kG*kA*dT*dA*dT*dT*d[5mC]*d[5mC]*dG*d[5mC]*dA*dT*kT*kG*k[5mC]) [compound 1074313]	56	21	9	5	< 0.02
1076449 (k[5mC]*k[5mC]*kT*dT*dA*dT*dA*dA*dT*dG*d[5mC]*dA*dA*kT*k[5mC]*k[5mC]; antisense) [compound 1076449]	44	8	3	2	< 0.02
1074407 (kT*kA*kA*dA*dG*dT*dA*dT*d[5mC]*dT*dT*dG*d[5mC]*kT*kG*kG; antisense) [compound 1074407]	55	27	13	8	< 0.02
1074250 (antisense k[5mC]*kT*kG*dA*dT*d[5mC]*dG*dA*dT*dG*dT*dG*dA*kT*kT*kT) [compound 1074250]	67	35	15	9	0.1
1076459 (k[5mC]*kT*kT*d[5mC]*dA*dA*d[5mC]*dA*dA*dG*dA*d[5mC]*dA*kG*kG*kT; antisense) [compound 1076459]	67	32	13	7	0.1
1075041 (antisense kG*kA*kT*dT*dA*dT*dA*dA*dA*dG*dA*dG*dG*k[5mC]*kT*k[5mC]) [compound 1075041]	62	31	11	7	0.05
1074565 (DNA kA*k[5mC]*kT*dG*dA*dA*dT*dT*d[5mC]*d[5mC]*dA*dA*dT*k[5mC]*kG*kA; antisense) [compound 1074565]	47	20	9	6	< 0.02
1076393 (antisense k[5mC]*kT*kT*dT*dA*d[5mC]*dT*dT*dA*d[5mC]*dT*dG*dG*kT*kG*kG) [compound 1076393]	54	20	8	5	< 0.02
1076483 (kA*k[5mC]*kG*dG*dG*dA*dA*dA*dT*d[5mC]*dA*dT*dA*kT*kA*kG; antisense) [compound 1076483]	63	27	11	6	0.04

— patent US11214803B2, “Modulators of YAP1 expression” (Ionis Pharmaceuticals, Inc., priority 2019, dated 2022)
